Reference: patent US9296697B2, “Hetaryl-substituted guanidine compounds and use thereof as binding partners for 5-HT5-receptors” (Abbott Laboratories, priority 2005, dated 2016)

The compounds below were run against T1, h5-HT5A receptor (Homo sapiens, UniProt P47898) (assay: h5-HT5A [3H]5-CT binding assay). Details: affinity for 5-HT5A; membranes of HEK293 cells expressing the h5-HT5A receptor gene, 2.5 nM [3H]5-CT.
T1 construct: expressed in transfected cells; membranes used
Method: h5-HT5A [^3H]5-CT Binding Assay
Membranes of HEK293 cells which permanently express the h5-HT5A receptor gene were incubated in 100 mM tris-HCl buffer (pH 7.7) containing 1 mM EDTA, in the presence of 2.5 nM [^3H]5-CT (total volume 600 μL). The total binding is defined as the binding that is observed when the membranes are incubated in the presence of only the radioligand. The inhibition induced by the compound is determined by incubation of cell membranes in the presence of the radioligand and various concentrations of the compound of interest. Nonspecific binding is defined as the [^3H]5-CT binding obtained by incubation of the membranes, the same as for the total binding, but in the presence of 10 μM methiothepine. Following incubation for 75 min at 30° C., the membrane suspension was filtered through a GF/B-Filter coated with 0.03% PEI, using a Skatron® harvesting system. The residual radioactivity in the filter was quantified by liquid scintillation counting.
Various concentrations of the test substances were used in both assays, and the Ki or IC50 values were determined.

T1 sequence (P47898 whole entry): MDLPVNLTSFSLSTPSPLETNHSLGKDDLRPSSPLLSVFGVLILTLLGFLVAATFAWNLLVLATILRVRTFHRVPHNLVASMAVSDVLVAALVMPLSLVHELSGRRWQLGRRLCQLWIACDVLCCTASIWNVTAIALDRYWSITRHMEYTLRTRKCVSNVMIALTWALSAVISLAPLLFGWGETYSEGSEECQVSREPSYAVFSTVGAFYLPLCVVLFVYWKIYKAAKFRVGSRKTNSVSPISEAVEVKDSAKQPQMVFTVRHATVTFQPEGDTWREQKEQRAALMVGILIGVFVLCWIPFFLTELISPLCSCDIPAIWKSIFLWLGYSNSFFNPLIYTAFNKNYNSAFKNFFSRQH

SMILES | Ki [nM]
N=C(NCc1ccccc1Cl)Nc1ccc(I)cn1 [Example 94, N-(2-Chlorobenzyl)-N′-(5-iodopyridin-2-yl)guanidine acetate] | < 300
COc1ccccc1CNC(=N)Nc1ncccn1 [Example 36, N-(2-Methoxybenzyl)-N′-pyrimidin-2-yl-guanidine acetate] | < 10000
COc1ccccc1CNC(=N)Nc1ccc(-c2ccc(C(F)(F)F)cc2)cn1 [Example 89, N-(2-Methoxybenzyl)-N′-{5-[4-(trifluoromethyl)phenyl]pyridin-2-yl}guanidine acetate] | < 300
COc1ccccc1CNC(=N)Nc1ncccc1-c1ccc(F)cc1 [Example 63, N-[3-(4-Fluorophenyl)pyridin-2-yl]-N′-(2-methoxybenzyl)guanidine acetate] | < 10000
COc1ccccc1CNC(=N)Nc1nccc(-c2cccs2)n1 [Example 14, N-(2-Methoxybenzyl)-N′-(4-(2-thienyl)pyrimidin-2-yl]guanidine acetate] | < 10000
COc1cccc(OC)c1CNC(=N)Nc1ncccc1C#N [Example 65, N-(3-Cyanopyridin-2-yl)-N′-(2,6-dimethoxybenzyl)guanidine acetate] | < 10000
CCOc1ccccc1CNC(=N)Nc1ccc(C)cn1 [Example 22, N-(2-Ethoxybenzyl)-N′-(5-methylpyridin-2-yl)guanidine acetate] | < 100
COc1ccccc1CNC(=N)Nc1cccc(C)n1 [Example 8, N-(2-Methoxybenzyl)-N′-(6-methylpyridin-2-yl)guanidine] | < 100
COc1cccc(OC)c1CNC(=N)Nc1cccc(Cc2ccccc2)n1 [Example 70, N-(6-Benzylpyridin-2-yl)-N′-(2,6-dimethoxybenzyl)guanidine acetate] | < 100
COc1cccc(F)c1CNC(=N)Nc1ccc(C#N)cn1 [Example 96, N-(5-Cyanopyridin-2-yl)-N′-(2-fluoro-6-methoxybenzyl)guanidine acetate] | < 100
COc1cccc(OC)c1CNC(=N)Nc1cc(-c2ccccc2)ccn1 [Example 56, N-(2,6-Dimethoxybenzyl)-N′-(4-phenylpyridin-2-yl)guanidine diacetate] | < 100
COc1cccc(C)c1CNC(=N)Nc1ccc(C)cn1 [Example 19, N-(2-Methoxy-6-methylbenzyl)-N′-(5-methylpyridin-2-yl)guanidine] | < 100
N#Cc1cccc(NC(=N)NCc2c(Cl)cccc2Oc2ccccc2)n1 [Example 82, N-(2-Chloro-6-phenoxybenzyl)-N′-(6-cyanopyridin-2-yl)guanidine acetate] | < 100
COc1cccc(OC)c1CNC(=N)Nc1cc(-c2ccc(F)cc2)ccn1 [Example 57, N-(2,6-Dimethoxybenzyl)-N′-[4-(4-fluorophenyl)pyridin-2-yl]guanidine acetate] | < 100
N#Cc1cccc(NC(=N)NCc2ccccc2OC(F)(F)F)n1 [Example 79, N-(6-Cyanopyridin-2-yl)-N′-[2-(trifluoromethoxy)benzyl]guanidine acetate] | < 100
COc1ccccc1CNC(=N)Nc1cc(C)ccn1 [Example 29, N-(2-Methoxybenzyl)-N′-(4-methylpyridin-2-yl)guanidine acetate] | < 100
COc1cccc(OC)c1CNC(=N)Nc1ncccc1-c1ccccc1 [Example 60, N-(2,6-Dimethoxybenzyl)-N′-(3-phenylpyridin-2-yl)guanidine acetate] | < 300

SMILES | Ki [nM]
COc1ccccc1CNC(=N)Nc1ccc(C#N)cn1 [Example 90, N-(5-Cyanopyridin-2-yl)-N′-(2-methoxybenzyl)guanidine] | < 100
COc1cccc(OC)c1CNC(=N)Nc1cc(Br)ccn1 [Example 44, N-(4-Bromopyridin-2-yl)-N′-(2,6-dimethoxybenzyl)guanidine] | < 100
COc1cccc(OC)c1CNC(=N)Nc1cccc(-c2ccc(F)cc2)n1 [Example 54, N-(2,6-Dimethoxybenzyl)-N′-[6-(4-fluorophenyl)pyridin-2-yl]guanidine] | < 100
COc1cccc(OC)c1CNC(=N)Nc1cccc(C)n1 [Example 9, N-(2,6-dimethoxybenzyl)-N′-(6-methylpyridin-2-yl)guanidine] | < 100
COc1ccccc1CNC(=N)Nc1cccc(-c2ccc(F)cc2)n1 [Example 50, N-[6-(4-Fluorophenyl)pyridin-2-yl]-N′-(2-methoxybenzyl)guanidine] | < 300
COc1cccc(OC)c1CNC(=N)Nc1ccc(-c2ccc(F)cc2)cn1 [Example 84, N-(2,6-Dimethoxybenzyl)-N′-[5-(4-fluorophenyl)pyridin-2-yl]guanidine acetate] | < 100
COc1ccccc1CNC(=N)Nc1cccnc1 [Example 34, N-(2-Methoxybenzyl)-N′-pyridin-3-yl-guanidine acetate] | < 10000
COc1ccccc1CNC(=N)Nc1cccc(-c2ccccc2)n1 [Example 51, N-(2-Methoxybenzyl)-N′-(6-phenylpyridin-2-yl)guanidine acetate] | < 100
COc1cccc(OC)c1CNC(=N)Nc1ccc(I)cn1 [Example 3, N-(2,6-dimethoxybenzyl)-N′-(5-iodopyridin-2-yl)guanidine] | < 100
COc1cccc(Cl)c1CNC(=N)Nc1ncccc1C [Example 31, N-(2-Chloro-6-methoxybenzyl)-N′-(3-methylpyridin-2-yl)guanidine] | < 100
COc1ccccc1CNC(=N)Nc1ncc(C(F)(F)F)cc1Cl [Example 10, N-[3-Chloro-5-(trifluoromethyl)pyridin-2-yl]-N′-(2-methoxybenzyl)guanidine acetate] | < 10000
COc1cccc(OC)c1CNC(=N)Nc1cnc2ccccc2c1 [Example 17, N-(2,6-Dimethoxybenzyl)-N′-quinolin-3-yl-guanidine acetate] | < 100
COc1ccccc1CNC(=N)Nc1ccc(Cc2ccccc2)cn1 [Example 67, N-(5-Benzylpyridin-2-yl)-N′-(2-methoxybenzyl)guanidine acetate] | < 100
CCOc1ccccc1CNC(=N)Nc1cccc(Br)n1 [Example 75, N-(6-Bromopyridin-2-yl)-N′-(2-ethoxybenzyl)guanidine acetate] | < 100
COc1ccccc1CNC(=N)Nc1cccc(-c2cccs2)n1 [Example 49, N-(2-Methoxybenzyl)-N′-[6-(2-thienyl)pyridin-2-yl]guanidine] | < 100
COc1cccc(C)c1CNC(=N)Nc1ncccc1C [Example 33, N-(2-Methoxy-6-methylbenzyl)-N′-(3-methylpyridin-2-yl)guanidine] | < 100

Further lines, results first:

Ki [nM] | SMILES
< 100 | COc1cccc(OC)c1CNC(=N)Nc1cccc(Br)n1 [Example 43, N-(6-Bromopyridin-2-yl)-N′-(2,6-dimethoxybenzyl)guanidine]
< 100 | COc1ccccc1CNC(=N)Nc1ncccc1-c1ccccc1 [Example 62, N-(2-Methoxybenzyl)-N′-(3-phenylpyridin-2-yl)guanidine acetate]
< 100 | COc1cccc(OC)c1CNC(=N)Nc1ccc(Cc2ccccc2)cn1 [Example 68, N-(5-Benzylpyridin-2-yl)-N′-(2,6-dimethoxybenzyl)guanidine acetate]
< 100 | COc1cccc(OC)c1CNC(=N)Nc1ncccn1 [Example 37, N-(2,6-Dimethoxybenzyl)-N′-pyrimidin-2-ylguanidine]
< 100 | COc1cccc(OC)c1CNC(=N)Nc1ccccn1 [Example 5, N-(2,6-dimethoxybenzyl)-N′-pyridin-2-yl-guanidine acetate]
< 100 | COc1cccc(OC)c1CNC(=N)Nc1ccc2ccccc2n1 [Example 41, N-(2,6-Dimethoxybenzyl)-N′-quinolin-2-yl-guanidine acetate]
< 100 | COc1cccc(OC)c1CNC(=N)Nc1ccc(-c2ccccc2)cn1 [Example 83, N-(2,6-Dimethoxybenzyl)-N′-(5-phenylpyridin-2-yl) guanidine acetate]
< 100 | COc1cccc(Cl)c1CNC(=N)Nc1ccc(C)cn1 [Example 18, N-(2-Chloro-6-methoxybenzyl)-N′-(5-methylpyridin-2-yl)guanidine acetate]
< 100 | COc1cccc(F)c1CNC(=N)Nc1ncccc1C [Example 32, N-(2-Fluoro-6-methoxybenzyl)-N′-(3-methylpyridin-2-yl)guanidine]
< 100 | COc1ccccc1CNC(=N)Nc1ncccc1C [Example 12, N-(2-Methoxybenzyl)-N′-(3-methylpyridin-2-yl)guanidine acetate]
< 100 | COc1cccc(OC)c1CNC(=N)Nc1ccc(C)cn1 [Example 7, N-(2,6-dimethoxybenzyl)-N′-(5-methylpyridin-2-yl)guanidine]
< 100 | COc1ccccc1CNC(=N)Nc1ccc(-c2ccc(F)cc2)cn1 [Example 88, N-[5-(4-Fluorophenyl)pyridin-2-yl]-N′-(2-methoxybenzyl)guanidine acetate]
< 100 | COc1cccc(Cl)c1CNC(=N)Nc1cccc(C#N)n1 [Example 78, N-(2-Chloro-6-methoxybenzyl)-N′-(6-cyanopyridin-2-yl)guanidine acetate]
< 100 | COc1cccc(F)c1CNC(=N)Nc1ccc(C)cn1 [Example 20, N-(2-Fluoro-6-methoxybenzyl)-N′-(5-methylpyridin-2-yl)guanidine acetate]
< 100 | COc1cccc(F)c1CNC(=N)Nc1ccc(I)cn1 [Example 92, N-(2-Fluoro-6-methoxybenzyl)-N′-(5-iodopyridin-2-yl)guanidine acetate]
